ChEMBL document CHEMBL1156448, “Identification of an efficacy switch region in the ghrelin receptor responsible for interchange between agonism and inverse agonism” (J Biol Chem, 2007)

Tests used:
[1] = target: T1, Growth hormone secretagogue receptor type 1 (Homo sapiens, UniProt Q92847); test: Displacement of [35S]MK677 from human ghrelin receptor expressed in african green monkey COS7 cells; format: cell-based, COS-7
[2] = target: T1, Growth hormone secretagogue receptor type 1; test: Inverse agonist activity at human ghrelin receptor expressed in african green monkey COS7 cells assessed as constitutively stimulated inositol phosphate accumulation; format: functional, cell-based, COS-7

T1 sequence (Q92847 whole entry): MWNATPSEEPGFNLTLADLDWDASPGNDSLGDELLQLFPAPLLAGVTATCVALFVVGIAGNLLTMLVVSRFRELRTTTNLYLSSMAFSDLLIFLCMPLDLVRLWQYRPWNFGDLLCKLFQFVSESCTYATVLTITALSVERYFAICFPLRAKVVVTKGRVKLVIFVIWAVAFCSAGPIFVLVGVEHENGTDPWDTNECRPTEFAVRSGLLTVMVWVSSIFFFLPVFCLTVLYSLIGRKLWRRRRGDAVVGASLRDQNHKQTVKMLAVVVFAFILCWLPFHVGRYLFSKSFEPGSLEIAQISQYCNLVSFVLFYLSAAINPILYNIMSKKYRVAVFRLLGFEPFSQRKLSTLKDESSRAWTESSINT

Row | SMILES | IC50 [1] [nM] | IC50 [2] [nM]
1 | NC(=O)CNC(=O)CNC(=O)[C@@H](Cc1c[nH]c2ccccc12)NC(=O)[C@H](Cc1ccccc1)NC(=O)[C@H](N)Cc1c[nH]c2ccccc12 | 540 | 159
2 | CC(C)C[C@H](NC(=O)[C@H](CC(C)C)NC(=O)[C@@H](Cc1c[nH]c2ccccc12)NC(=O)[C@H](Cc1ccccc1)NC(=O)[C@@H](Cc1c[nH]c2ccccc12)NC(=O)[C@@H](N)Cc1cnc[nH]1)C(N)=O | 58 | 68

Other lines, results leading:

Row | IC50 [1] [nM] | IC50 [2] [nM] | SMILES
3 | 210 | 112 | CC(C)C[C@H](NC(=O)[C@H](CC(C)C)NC(=O)[C@@H](Cc1c[nH]c2ccccc12)NC(=O)[C@H](Cc1ccccc1)NC(=O)[C@@H](Cc1c[nH]c2ccccc12)NC(=O)[C@@H](CCCNC(=N)N)NC(=O)[C@H]1CCCN1C(=O)[C@@H](N)CC(=O)O)C(N)=O
4 | 12 | 21 | CC(C)C[C@H](NC(=O)[C@H](CC(C)C)NC(=O)[C@@H](Cc1c[nH]c2ccccc12)NC(=O)[C@H](Cc1ccccc1)NC(=O)[C@@H](Cc1c[nH]c2ccccc12)NC(=O)[C@@H](N)CCCN=C(N)N)C(N)=O
5 | > 1000 | > 1000 | C[C@H](NC(=O)[C@H](C)NC(=O)[C@@H](Cc1c[nH]c2ccccc12)NC(=O)[C@H](Cc1ccccc1)NC(=O)[C@H](N)Cc1c[nH]c2ccccc12)C(N)=O
